Source: patent US12291533B2, “Substituted fused pyrimidine compounds and uses thereof” (Northwestern University, priority 2017, dated 2025)

Target: T1, glucocerebrosidase (Homo sapiens, UniProt P04062)
T1 sequence (P04062 40-536): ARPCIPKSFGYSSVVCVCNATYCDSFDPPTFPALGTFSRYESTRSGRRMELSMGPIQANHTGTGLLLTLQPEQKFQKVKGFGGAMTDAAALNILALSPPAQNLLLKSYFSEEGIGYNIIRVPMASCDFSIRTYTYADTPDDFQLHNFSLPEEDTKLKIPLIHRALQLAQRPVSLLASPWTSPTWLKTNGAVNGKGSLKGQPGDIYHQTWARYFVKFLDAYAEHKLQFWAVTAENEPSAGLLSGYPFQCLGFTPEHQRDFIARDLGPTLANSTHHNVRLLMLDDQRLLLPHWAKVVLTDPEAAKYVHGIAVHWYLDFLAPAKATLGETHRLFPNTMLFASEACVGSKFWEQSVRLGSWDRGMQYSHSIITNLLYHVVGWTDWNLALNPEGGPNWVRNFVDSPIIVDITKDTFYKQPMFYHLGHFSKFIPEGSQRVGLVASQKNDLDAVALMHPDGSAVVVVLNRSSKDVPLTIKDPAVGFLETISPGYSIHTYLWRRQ
Assay: Glucocerebrosidase activity assay with blue substrate (4MU-Glc)
Format: biochemical
Method: Example 2—Glucocerebrosidase Activity Assay with Blue Substrate
The compounds in DMSO solution 0.5 μL/well were transferred to a black 96-well plate (the final titration was 24 nM to 50 μM, 12 concentrations, 2× dilution). 33.5 μL enzyme solution (7.5 nM final concentration) was transferred to the wells. After 5 min of incubation at room temperature, the enzyme reaction was initiated by the addition of 33 μL/well blue substrate. Final concentration of the blue substrate (4MU-Glc) was 1.5 mM. The blue substrate reaction was terminated by the addition of 33 μL/well stop solution (1 M NaOH and 1 M glycine mixture, pH 10) after 30 min of incubation at 37° C. The fluorescence was then measured in the Biotek Synergy H1 multi-mode plate reader with Ex=365 nm and Em=440 nm.
Additional compounds were synthesized and tested for glucocerebrosidase modulatory activity as described in Example 1 and Example 2.

[1] = Table 1, 7.5 nM enzyme, 1.5 mM 4MU-Glc, 30 min at 37° C.
[2] = Table 1, 7.5 nM enzyme, 1.5 mM 4MU-Glc, 30 min at 37° C., titration 24 nM to 50 μM
[3] = Table 2, additional compounds, tested as described in Example 2

In the case of CCn1ncc2c(N(C)Cc3ccc4c(c3)OCO4)nc(-c3cccnc3)nc21 [Compound 108], the Emax [1] is reported as 400% and the AC50 [2] is reported as 7.08 µM.

Work on c1ccc(OC2CCN(c3nc(-c4cccnc4)nc4ccccc34)CC2)cc1 [Compound 166] yielded an AC50 [3] of 6.31 µM and an Emax [3] of 276%.

In the case of CN(CCOc1ccccc1)c1cc(N2CCC(CO)CC2)nc(-c2cccnc2)n1 [Compound 174], the AC50 [3] is reported as 14.1 µM and the Emax [3] is reported as 625%.

In the case of CN(CCOc1ccccc1)c1nc(-c2cncc(F)c2)nc2ncccc12 [Compound 69], the AC50 [2] is reported as 7.1 µM.

Work on c1ccc(O[C@H]2CCN(c3nc(-c4cccnc4)nc4ccccc34)C2)cc1 [Compound 154] yielded an AC50 [3] of 4.47 µM and an Emax [3] of 190%.

CCc1ccc(-c2nc(N(C)CCOc3ccc(C#N)cc3)c3cnn(CC)c3n2)cc1 [Compound 123] was tested, and the AC50 [3] was 3.16 µM and the Emax [3] was 105%.

Compound CN(CCOc1ccccc1)c1nc(-c2cccnc2)nc2ccsc12 [Compound 59] has an Emax [1] of 333% and an AC50 [2] of 5.01 µM.

CN(CCOc1ccccc1)c1nc(-c2cccnc2)nc2c1CCCC2 [Compound 58] gave an Emax [1] of 130% and an AC50 [2] of 1.41 µM.

Cc1ccccc1OCCN(C)c1nc(-c2cccnc2)nc2ccccc12 [Compound 28] showed an Emax [1] of 350% and an AC50 [2] of 3.16 µM.

Work on Cc1nn(Cc2ccccc2)c(C)c1Nc1nc(-c2cccnc2)nc2ccccc12 [Compound 70] yielded an Emax [1] of 191% and an AC50 [2] of 8.91 µM.

With CCCN(CCOc1ccccc1)c1nc(-c2cccnc2)nc2ccccc12 [Compound 15] the Emax [1] was 130% and the AC50 [2] was 3.12 µM.

Compound CN(CCOc1ccccc1)c1nc(-c2cccnc2)nc2cccnc12 [Compound 182] has an AC50 [3] of 5.01 µM and an Emax [3] of 225%.

CN(CCOc1ccccc1)c1nc(-c2cccnc2)nc2c(C(F)(F)F)cccc12 [Compound 43] showed an Emax [1] of 400% and an AC50 [2] of 1.81 µM.

CN(CCOc1ccccc1)c1cc(N2CC[C@@H](O)C2)nc(-c2cccnc2)n1 [Compound 171] showed an AC50 [3] of 5 µM and an Emax [3] of 280%.

Cc1csc2c(N(C)CCOc3ccccc3)nc(-c3cccnc3)nc12 [Compound 64] gave an Emax [1] of 222% and an AC50 [2] of 2.51 µM.

COC(=O)Cc1ccc(CNc2nc(-c3cccnc3)nc3ccccc23)cc1 [Compound 61] showed an Emax [1] of 127% and an AC50 [2] of 2.51 µM.

In the case of CN(CCOc1ccc2c(c1)CCCC2)c1nc(-c2cccnc2)nc2c1cnn2C [Compound 103], the Emax [1] is reported as 371% and the AC50 [2] is reported as 3.16 µM.

CN(CCOc1ccccc1)c1nc(-c2cccnc2)nc2cc(F)ccc12 [Compound 39] gave an Emax [1] of 450% and an AC50 [2] of 2.82 µM.

CN(CCOc1ccc2[nH]ccc2c1)c1nc(-c2cccnc2)nc2ccccc12 [Compound 147] showed an AC50 [3] of 4.47 µM and an Emax [3] of 450%.

Compound CCn1ncc2c(N3CCC[C@H](Oc4ccccc4)C3)nc(-c3cccnc3)nc21 [Compound 163] has an AC50 [3] of 25.1 µM and an Emax [3] of 475%.

Compound c1ccc(OC2CCN(c3nc(-c4cccnc4)nc4ccccc34)C2)cc1 (centres unmarked) [Compound 22] has an Emax [1] of 300% and an AC50 [2] of 1.58 µM.

For CN(CCOC1CCCCC1)c1nc(-c2cccnc2)nc2c1cnn2C [Compound 102], the AC50 [2] was 25.1 µM.

In the case of CN(Cc1cc2ccccc2o1)c1nc(-c2cccnc2)nc2c1cnn2C [Compound 89], the Emax [1] is reported as 660% and the AC50 [2] is reported as 4.47 µM.

In the case of CCn1ncc2c(N(C)CCOc3ccc(CNC(=O)CCCCNC(=O)OC(C)(C)C)cc3)nc(-c3cccnc3)nc21 [Compound 141], the AC50 [3] is reported as 0.5 µM and the Emax [3] is reported as 800%.

CCn1ncc2c(N(C)CCOc3ccc(CNC(=O)CNC(=O)OC(C)(C)C)cc3)nc(-c3cccnc3)nc21 [Compound 139] was tested, and the AC50 [3] was 6.31 µM and the Emax [3] was 980%.

CCN(CCOc1ccccc1)c1nc(-c2cccnc2)nc2ccccc12 [Compound 14] gave an Emax [1] of 430% and an AC50 [2] of 5.01 µM.

Compound COC(=O)Cc1cccc(OCCN(C)c2nc(-c3cccnc3)nc3ncccc23)c1 [Compound 94] has an AC50 [2] of 14.1 µM.

With CCn1ncc2c(N3CC[C@H](Oc4ccccc4)C3)nc(-c3cncc(C(F)(F)F)c3)nc21 [Compound 158] the AC50 [3] was 39.8 µM and the Emax [3] was 163%.

Compound CN(CCOc1ccccc1)c1nc(-c2ccc(Cl)nc2)nc2ccccc12 [Compound 17] has an Emax [1] of 190% and an AC50 [2] of 1.58 µM.

Compound CN(CCOc1ccccc1)c1nc(-c2ccc(O)nc2)nc2ccccc12 [Compound 51] has an Emax [1] of 200% and an AC50 [2] of 8.17 µM.

For CCn1ncc2c(N(C)CCOc3ccc(CNC(C)=O)cc3)nc(-c3cccnc3)nc21 [Compound 125], the AC50 [3] was 6.31 µM and the Emax [3] was 610%.

Work on Cn1ncc2c(N3CCC[C@H](C(=O)Nc4ccccc4)C3)nc(-c3cccnc3)nc21 [Compound 116] yielded an AC50 [3] of 12.6 µM and an Emax [3] of 210%.

Compound CN(CC1Cc2ccccc2O1)c1nc(-c2cccnc2)nc2ccccc12 (centres unmarked) [Compound 82] has an Emax [1] of 501% and an AC50 [2] of 1.12 µM.

For CN(CCOc1ccccc1)c1nc(-c2cccnc2)nc2c1COC2 [Compound 73], the Emax [1] was 330% and the AC50 [2] was 5.62 µM.

CN(C[C@H]1COc2ccccc2O1)c1nc(-c2cccnc2)nc2c1cnn2C [Compound 10] was tested, and the Emax [1] was 573% and the AC50 [2] was 1.38 µM.

In the case of CN(CCOc1ccccc1)c1nc(-c2cccnc2)nc2c1SCC2 [Compound 68], the Emax [1] is reported as 327% and the AC50 [2] is reported as 12.6 µM.

For c1ccc(OCCOc2nc(-c3cccnc3)nc3ccccc23)cc1 [Compound 24], the Emax [1] was 140% and the AC50 [2] was 3.16 µM.

For Cc1cc(C)cc(OCCN(C)c2nc(-c3cccnc3)nc3ccccc23)c1 [Compound 27], the Emax [1] was 225% and the AC50 [2] was 3.98 µM.

For CN(CCOc1ccccc1)c1nc(-c2cccnc2)nc2c1cnn2-c1ccccc1 [Compound 151], the AC50 [3] was 2.5 µM and the Emax [3] was 305%.

Work on CN(C)c1ccc2c(-c3ccc(C(=O)NCCOCCOCCOCCOCCC(=O)NCCCCCC(=O)Nc4ccc(-c5nc(N(C)CCOc6ccccc6)c6ccccc6n5)cc4)cc3C(=O)[O-])c3ccc(=[N+](C)C)cc-3oc2c1 [Compound 135] yielded an AC50 [3] of 1.67 µM.

CC(C)n1ncc2c(N(C)CCOc3ccccc3)nc(-c3cccnc3)nc21 [Compound 98] gave an Emax [1] of 140% and an AC50 [2] of 28.2 µM.

For c1ccc(O[C@H]2CCCN(c3nc(-c4cccnc4)nc4ccccc34)C2)cc1 [Compound 25], the Emax [1] was 220% and the AC50 [2] was 3.98 µM.

CN(CCOc1ccccc1)c1nc(-c2cncc(Cl)c2)nc2ccccc12 [Compound 32] was tested, and the Emax [1] was 250% and the AC50 [2] was 1.21 µM.

In the case of C#Cc1ccc(OCCN(C)c2nc(-c3cccnc3)nc3ccccc23)cc1 [Compound 33], the Emax [1] is reported as 190% and the AC50 [2] is reported as 2.82 µM.

CCn1ncc2c(N(C)CCOc3ccc(CNC(=O)CCCCCNC(=O)OC(C)(C)C)cc3)nc(-c3cccnc3)nc21 [Compound 111] was tested, and the Emax [1] was 675% and the AC50 [2] was 0.5 µM.

Compound CN(CCOc1ccc(CN)cc1)c1nc(-c2cccnc2)nc2ccccc12 [Compound 53] has an Emax [1] of 300% and an AC50 [2] of 4.1 µM.

CCn1ncc2c(N(C)CCOc3ccc(CNC(=O)CCCCNC(=O)OC(C)(C)C)cc3)nc(-c3ccsc3)nc21 [Compound 149] showed an AC50 [3] of 0.4 µM and an Emax [3] of 157%.

For CN(CCOc1ccccc1)c1nc(-c2cccnc2)nc2ccccc12 [Compound 13], the Emax [1] was 750% and the AC50 [2] was 3.55 µM.

For Cc1cc(-c2nc(N(C)CCOc3ccccc3)c3ccccc3n2)ccn1 [Compound 169], the AC50 [3] was 15.8 µM and the Emax [3] was 191%.

With CCn1ncc2c(N3CC[C@@H](Oc4ccccc4)C3)nc(-c3cncc(C(F)(F)F)c3)nc21 [Compound 159] the AC50 [3] was 44.6 µM and the Emax [3] was 242%.

CCn1ncc2c(N(C)CCOc3ccc(CNC(=O)CCNC(=O)OC(C)(C)C)cc3)nc(-c3cccnc3)nc21 [Compound 140] gave an AC50 [3] of 2.82 µM and an Emax [3] of 980%.

COC(=O)Cc1cccc(OCCN(C)c2nc(-c3cccnc3)nc3c2cnn3C)c1 [Compound 90] was tested, and the Emax [1] was 908% and the AC50 [2] was 7.94 µM.

O=C(CCCCCCCN(CCOc1ccccc1)c1nc(-c2cccnc2)nc2ccccc12)ON1C(=O)CCC1=O [Compound 20] showed an Emax [1] of 500% and an AC50 [2] of 1.26 µM.

CN(CCOc1ccccc1)c1nc(-c2cccnc2)nc2[nH]ccc12 [Compound 63] showed an Emax [1] of 461% and an AC50 [2] of 3.98 µM.

Cn1ncc2c(N3CCC[C@@H](C(=O)Nc4ccccc4)C3)nc(-c3cccnc3)nc21 [Compound 117] showed an AC50 [3] of 14.1 µM and an Emax [3] of 310%.

With CN(CCN(C)c1nc(-c2cccnc2)nc2ccccc12)c1ccccc1 [Compound 42] the Emax [1] was 250% and the AC50 [2] was 6.54 µM.

CN(CCOc1ccc(CCc2ccccc2)cc1)c1nc(-c2cccnc2)nc2ccccc12 [Compound 21] gave an Emax [1] of 180% and an AC50 [2] of 15.8 µM.

CCn1ncc2c(N(C)CCOc3ccc(CN)cc3)nc(-c3cccnc3)nc21 [Compound 110] gave an Emax [1] of 750% and an AC50 [2] of 7.94 µM.

With CN(CCOc1ccccc1)c1nc(-c2cccnc2)nc2cc(C(F)(F)F)ccc12 [Compound 44] the Emax [1] was 180% and the AC50 [2] was 4.12 µM.

For CCn1ncc2c(N3CC[C@@H](Oc4ccccc4)C3)nc(-c3cncc(Cl)c3)nc21 [Compound 161], the AC50 [3] was 39.8 µM and the Emax [3] was 190%.
